Experimental data published in patent US6825177B2, “Aryl phosphate derivatives of d4T with potent anti-viral activity” (Parker Hughes Institute, priority 2000, dated 2004).
Read-outs that look alike come from different tables or passages of the source.

Key:
[1] = Pharmacokinetics of HI-113 and its metabolites after intravenous HI-113
Description: (§5) Female Balb/c mice (6-8 weeks old) from Taconic (Germantown, N.Y.) were housed in a controlled environment (12-hours of light/12-hours of dark, 22±1° C., 60±10% relative humidity), which is fully accredited by the USDA. All rodents were housed in microisolator cages (Lab Products, Inc., N.J.) containing autoclaved bedding. The mice were allowed free access to autoclaved pellet food and tap water throughout the study.
(§6) All collected blood samples were heparinized and centrifuged at 7000×g for 5 minutes to separate the plasma fraction from the whole blood. The plasma samples were then processed immediately using the extraction procedure described above.
An appropriate model was chosen on the basis of the lowest sum of weighted squared residuals, the lowest Schwartz Criterion (SC), the lowest Akaike's Information Criterion (AIC) value, the lowest standard errors of the fitted parameters, and the dispersion of the residuals. The elimination half-life was estimated by linear regression analysis of the terminal phase of the plasma concentration-time profile. […] The systemic clearance (CL) was determined by dividing the dose by the AUC.

[2] = Stability of HI-113 and Ala-d4T-MP in plasma; type: in vitro ADME; settings: for stability in plasma: 250 μM HI-113, 100 μM Ala-d4T-MP
From the text: (§1) The HPLC system used for these studies was a Hewlett Packard (Palo Alto, Calif.) series 1100 instrument equipped with a quaternary pump, an autosampler, an automatic electronic degasser, an automatic thermostatic column compartment, a diode array detector and a computer with Chemstation software for data analysis (Chen et al., J. Chromatogr. B., 724, 157 (1999); Chen et al., J. Chromatogr. B., 727, 205 (1999); and Chen et al., J. Liq. Chromatogr., 22, 1771 (1999)). The analytical column used was a Zobax SB-Phenyl (5 μm, Hewlett Packard, Inc.) column attached to a guard column (Hewlett Packard, Inc.). The column was equilibrated prior to data collection. […] The detection wavelength was 268 nm, the peakwidth was less than 0.03 minutes, the response time was 0.5 seconds, and the slit was 4 nm.
(§2) Plasma samples (200 μL) were mixed 1:4 with acetone (800 μL) and vortexed for at least 30 seconds. Following centrifugation, the supernatant was transferred into a clean tube and was dried under nitrogen. A 50 μL solution of 50% methanol in 200 mM HCl was used to reconstitute the extraction residue, and 40 μL was injected into the HPLC.
(§3) The whole blood samples were placed in a 37° C. water bath, while plasma samples were stored at −20° C. At a predetermined time, an aliquot (100 μl) of spiked whole blood or plasma was extracted by adding 400 μl of acetone to induce precipitation of proteins, as described above.

[3] = Pharmacokinetics of Ala-d4T-MP and its metabolite after intravenous Ala-d4T-MP; type: in vivo, Balb/c mice
Description: as §5
Blood samples (˜500 μL) were obtained from the ocular venous plexus by retro-orbital venipuncture at 0, 2, 5, 10, 15, 30, 45, 60, 120, 240 and 360 minutes after intravenous injection. […]
Pharmacokinetic modeling and parameter calculations were carried out using the WinNonlin Professional Version 3.0 (Pharsight, Inc., Mountain, Calif.) pharmacokinetics software (Chen et al., Pharm. Res., 16, 1003 (1999); Chen et al., Pharm. Res., 16, 117 (1999); Chen et al., J. Clin. Pharmacol., 39, 1248 (1999); Uckun et al., Clin. Cancer Res., 5, 2954 (1999); and Uckun et al., J. Pharmacol. Exp. Ther., 291, 1301 (1999)). […] The area under the concentration-time curve (AUC) was calculated according to the linear trapezoidal rule between the first sampling time (0 hours) and the last sampling time plus C/k, where C is the concentration of the last sampling and k is the elimination rate constant. The systemic clearance (CL) was determined by dividing the dose by the AUC. […]

[4] = Stability in simulated intestinal fluid; type: in vitro ADME; settings: 100 μM, 37° C.
Description: (§4) The spiked fluids were then placed in a 37° C. water bath. At a predetermined time, 100 μl aliquots of the spiked gastric or intestinal fluid were extracted by adding 400 μl of acetone as discussed above.

[5] = Pharmacokinetics after oral administration of HI-113; type: in vivo, Balb/c mice
Description: Female Balb/c mice (6-8 weeks old) from Taconic (Germantown, N.Y.) were housed in a controlled environment (12-hours of light/12-hours of dark, 22±1° C., 60±10% relative humidity), which is fully accredited by the USDA. All rodents were housed in microisolator cages (Lab Products, Inc., N.J.) containing autoclaved bedding. The mice were allowed free access to autoclaved pellet food and tap water throughout the study. All animal care procedures conformed to the Guide for the Care and Use of Laboratory Animals (National Research Council, National Academy Press, Washington D.C. 1996).
Sampling time points were 0, 2, 5, 10, 15, 30, 45, 60, 120, 240 and 360 minutes after the gavage. […]
Pharmacokinetic modeling and parameter calculations were carried out using the WinNonlin Professional Version 3.0 (Pharsight, Inc., Mountain, Calif.) pharmacokinetics software (Chen et al., Pharm. Res., 16, 1003 (1999); Chen et al., Pharm. Res., 16, 117 (1999); Chen et al., J. Clin. Pharmacol., 39, 1248 (1999); Uckun et al., Clin. Cancer Res., 5, 2954 (1999); and Uckun et al., J. Pharmacol. Exp. Ther., 291, 1301 (1999)). […] The area under the concentration-time curve (AUC) was calculated according to the linear trapezoidal rule between the first sampling time (0 hours) and the last sampling time plus C/k, where C is the concentration of the last sampling and k is the elimination rate constant. […]

[6] = Stability of HI-113 and Ala-d4T-MP in whole blood; type: in vitro ADME; settings: 37° C.; for stability in whole blood: 250 μM HI-113, 100 μM Ala-d4T-MP
From the text: as §1, §2, §3

[7] = for effect of esterase inhibitor on decomposition of HI-113 in plasma: plasma pre-incubated with inhibitor at 37° C. for 30 minutes, 250 μM HI-113
Description: Plasma samples were pre-incubated with the esterase inhibitors paraoxon (final concentration of 0.1 mM), physostigmine (final concentration of 0.1 mM), and EDTA (final concentration of 1M) at 37° C. for 30 minutes. […] The data in Table 1 was the mean percent hydrolysis from two experiments.

[8] = system: zidovudine (ZVD/AZT)-resistant HIV-1 strains; settings: PBMNC; cited from earlier work
[9] = system: HIV replication in human peripheral blood mononuclear cells (PBMNC); settings: compared with d4T; cited from earlier work
[10] = system: HIV replication in thymidine kinase-deficient T-cells; settings: compared with d4T; cited from earlier work
[11] = Stability in simulated gastric fluid; type: in vitro ADME; settings: 100 μM, 37° C.
Description: as §4

[12] = system: HIV-2; settings: PBMNC; cited from earlier work
[13] = Stability of HI-113 in murine liver homogenates; type: in vitro ADME, Balb/c mice; settings: 100 μM
Description: Fresh mouse liver was obtained from Balb/c mice and homogenated in 1×PBS (1:1, W/V) using a Polytron (PT-MR2000) homogenizer (Kinematical AG, Littau, Switzerland). […] At a predetermined time, an aliquot (100 μl) of spiked liver homogenate was extracted by adding 400 μl of acetone to induce precipitation of proteins, as described above.

[14] = Pharmacokinetics of d4T after intravenous d4T; type: in vivo, Balb/c mice; settings: i.v. d4T 40 mg/kg
Description: as §5
Blood samples (˜500 μL) were obtained from the ocular venous plexus by retro-orbital venipuncture at 0, 2, 5, 10, 15, 30, 45, 60, 120, 240 and 360 minutes after intravenous injection.
as §6
Pharmacokinetic modeling and parameter calculations were carried out using the WinNonlin Professional Version 3.0 (Pharsight, Inc., Mountain, Calif.) pharmacokinetics software (Chen et al., Pharm. Res., 16, 1003 (1999); Chen et al., Pharm. Res., 16, 117 (1999); Chen et al., J. Clin. Pharmacol., 39, 1248 (1999); Uckun et al., Clin. Cancer Res., 5, 2954 (1999); and Uckun et al., J. Pharmacol. Exp. Ther., 291, 1301 (1999)). An appropriate model was chosen on the basis of the lowest sum of weighted squared residuals, the lowest Schwartz Criterion (SC), the lowest Akaike's Information Criterion (AIC) value, the lowest standard errors of the fitted parameters, and the dispersion of the residuals. The elimination half-life was estimated by linear regression analysis of the terminal phase of the plasma concentration-time profile. The area under the concentration-time curve (AUC) was calculated according to the linear trapezoidal rule between the first sampling time (0 hours) and the last sampling time plus C/k, where C is the concentration of the last sampling and k is the elimination rate constant. The systemic clearance (CL) was determined by dividing the dose by the AUC. The metabolic clearance of the parent drug, the formation clearance of the metabolite, the clearance elimination of the metabolite, and the distribution clearance of the metabolite were estimated by simultaneous fitting of the concentration of parent drug and metabolites as a function of time curve to pharmacokinetic models (see FIGS. 7A & 8A) specified as a system of differential equations (Gabrielsson & Weiner, Phamacokinetic/Phamacodynamic Data Analysis: Concepts and Applications, Swedish Pharmaceutical Press (1997)).

[15] = i.v. HI-113 100 mg/kg, plasma, estimated from composite curve of pooled data
[16] = i.v. HI-113 100 mg/kg, mean ± S.E.M
[17] = plasma, estimated from composite curve of pooled data

For `Cc1cn([C@H]2C=C[C@@H](COP(=O)(O)NC(C)C(=O)O)O2)c(=O)[nH]c1=O` (stereo partly shown) [Ala-d4T-MP, alaninyl-d4T-monophosphate], the “fraction of HI-113 converted to the metabolite” value ([1]; after intravenous HI-113) was 23%, the “stability in plasma” value [2] was “stable in both whole blood and plasma for 1 day” and the “CLm1 as share of the total systemic clearance” value ([3]; i.v. Ala-d4T-MP) was 99%. The “stability in intestinal fluid” value [4] was “stable”, the “estimated bioavailability of the metabolite” value ([5]; after oral administration of HI-113) was “approximately 12%” and the “stability in whole blood” value [6] was “stable in both whole blood and plasma for 1 day”.
For `O=C(O)CN(CCN(CC(=O)O)CC(=O)O)CC(=O)O` [EDTA, reference compound], the “effect of esterase inhibitor on decomposition of HI-113 in plasma” value [7] was “not affected”.
For `COC(=O)C(C)NP(=O)(OC[C@@H]1C=C[C@H](n2cc(C)c(=O)[nH]c2=O)O1)Oc1ccc(Br)cc1` (stereo partly shown) [HI-113, d4T-5′-[p-bromophenylmethoxyalaninyl phosphate]], the “concentration inhibiting replication of zidovudine (ZVD/AZT)-resistant HIV-1 strains” value [8] is given as “nanomolar concentrations”, the VSS [1, 15] is given as 0.8199 L/kg and the CL [1, 16] is given as “(174.5 ± 13.2) ml/min/kg”. The VSS [1, 16] was “(920 ± 127.4) ml/kg”, the “time until decomposition was complete in plasma” value ([2]; 250 μM) was at most 30 min and the “stability in plasma” value [2] was “very unstable”. The “HI-113 decomposed following incubation with plasma” value ([2]; after 5 minutes, 250 μM) was “over 95%”, the “potency in inhibiting HIV replication” value [9] was “substantially more potent than d4T” and the “potency in inhibiting HIV replication” value [10] was “substantially more potent than d4T”. For the same compound, the “stability in gastric fluid” value [11] was “relatively stable in gastric fluid for 8 hours”, the “percent hydrolysis of HI-113 in plasma” value ([7]; EDTA (1 mM), 10 min) was 100% and the “percent hydrolysis of HI-113 in plasma” value ([7]; EDTA (1 mM), 15 min) was 100%. The “percent hydrolysis of HI-113 in plasma” value ([7]; EDTA (1 mM), 30 min) was 100%, the “percent hydrolysis of HI-113 in plasma” value ([7]; EDTA (1 mM), 60 min) was 100% and the “percent hydrolysis of HI-113 in plasma” value ([7]; EDTA (1 mM), 120 min) was 100%. The “percent hydrolysis of HI-113 in plasma” value ([7]; EDTA (1 mM), arylesterase, 5 min) was 99%, the “percent hydrolysis of HI-113 in plasma” value ([7]; Paraoxon (0.1 mM), 10 min) was 2% and the “percent hydrolysis of HI-113 in plasma” value ([7]; Paraoxon (0.1 mM), 15 min) was 2%. The “percent hydrolysis of HI-113 in plasma” value ([7]; Paraoxon (0.1 mM), 30 min) was 2%, the “percent hydrolysis of HI-113 in plasma” value ([7]; Paraoxon (0.1 mM), 60 min) was 3% and the “percent hydrolysis of HI-113 in plasma” value ([7]; Paraoxon (0.1 mM), 120 min) was 24%. For the same compound, the “percent hydrolysis of HI-113 in plasma” value ([7]; Paraoxon (0.1 mM), cholinesterase & carboxylesterase, 5 min) was 0%, the “percent hydrolysis of HI-113 in plasma” value ([7]; Physostigmine (0.1 mM), 10 min) was 65% and the “percent hydrolysis of HI-113 in plasma” value ([7]; Physostigmine (0.1 mM), 15 min) was 76%. The “percent hydrolysis of HI-113 in plasma” value ([7]; Physostigmine (0.1 mM), 30 min) was 89%, the “percent hydrolysis of HI-113 in plasma” value ([7]; Physostigmine (0.1 mM), 60 min) was 100% and the “percent hydrolysis of HI-113 in plasma” value ([7]; Physostigmine (0.1 mM), 120 min) was 100%. For the same compound, the “percent hydrolysis of HI-113 in plasma” value ([7]; Physostigmine (0.1 mM), cholinesterase, 5 min) was 43%, the “percent hydrolysis of HI-113 in plasma” value ([7]; no inhibitor, 5 min, 250 μM HI-113, mean of two experiments) was 95% and the “percent hydrolysis of HI-113 in plasma” value ([7]; no inhibitor, 10 min) was 98%. The “percent hydrolysis of HI-113 in plasma” value ([7]; no inhibitor, 15 min) was 99%, the “percent hydrolysis of HI-113 in plasma” value ([7]; no inhibitor, 30 min) was 100% and the “percent hydrolysis of HI-113 in plasma” value ([7]; no inhibitor, 60 min) was 100%. For the same compound, the “percent hydrolysis of HI-113 in plasma” value ([7]; no inhibitor, 120 min) was 100%, the “concentration inhibiting replication of HIV-2” value [12] was “nanomolar concentrations” and the “time within which HI-113 decomposed in liver homogenate” value [13] was at most 30 min. For the same compound, the “stability in intestinal fluid” value [4] was “not stable”, the “HI-113 decomposed in intestinal fluid” value ([4]; within 2 hours) was “approximately 94%” and the “plasma concentration of the parent compound (below the detection limit)” value ([5]; oral HI-113 100 mg/kg) was under 500 nM. For the same compound, the “stability in whole blood” value [6] was “very unstable”, the “time until decomposition was complete in whole blood” value ([6]; 250 μM) was at most 30 min and the “HI-113 decomposed in whole blood” value ([6]; 5 minutes, 250 μM) was 68%. The “HI-113 decomposed in whole blood” value ([6]; 10 minutes, 250 μM) was 87% and the “HI-113 decomposed in whole blood” value ([6]; 15 minutes, 250 μM) was 92%.
For `Cc1cn([C@H]2C=C[C@@H](CO)O2)c(=O)[nH]c1=O` [d4T, 2′,3′-didehydro-2′,3′-dideoxythymidine], the t1/2 [1, 15] was 1.913 h, the “formation of d4T from intravenously administered Ala-d4T-MP (fraction converted)” value ([3]; female, Balb/c, mouse, in vivo, iv) was 15% and the AUC [14, 17] was 12227.1 µM·min. It also gave a CL [14, 17] of 15.0 mL/min/kg, a VSS [14, 17] of 0.6578 L/kg and a t1/2 [14, 17] of 0.505 h. The CL ([14]; mean ± S.E.M) was “(15.2 ± 0.7) ml/min/kg”, the VSS ([14]; mean ± S.E.M) was “(581.8 ± 62.8) ml/kg” and the t1/2 ([14]; mean ± S.E.M) was “(26.6 ± 1.2) min”.
In the case of `CCOP(=O)(OCC)Oc1ccc([N+](=O)[O-])cc1` [paraoxon, reference compound], the “effect of esterase inhibitor on decomposition of HI-113 in plasma” value [7] is reported as “significantly inhibited”.
